Experimental findings from patent US6949506B2, “Relaxin-like factor and methods and uses thereof” (BAS Medical, Inc., priority 1995, dated 2005) are described below.

“Also recorded” adds a separate entry of the source. Positions of bridges follow the written chain, without caps; N, C: chain ends. Chains are numbered I, II in the order given. No end group written: not given here.

The target in one experiment is T1, insulin receptor (Homo sapiens, UniProt P06213).
T1 construct: crude membrane preparations of term placenta; from tissue; host or cells: term placenta, crude membranes
Description: Insulin-receptor binding assay on crude membrane preparations of term placenta. The following applies: term placenta crude membranes; 125I-iodo-TyrA14 porcine insulin tracer. Here is the method:
Insulin-receptor binding assays were performed on crude membrane preparations of term placenta, as described in Hock and Hollenberg, 1980, J. Biol. Chem. 255:10731-10736, using ^125I-iodo-Tyr^A14 porcine insulin as tracer according to the method of Linde, et al., 1986, J. Chromatogr. 369:327-339.
The assays were performed in HMS-buffer (25 mM HEPES, 104 mM NaCl, 5 mM MgCl2, 0.2% bovine serum albumin; pH 7.4) in a total volume of 100 μl. Labeled insulin (50,000 cpm/assay, 150 pM) and variable amounts of insulin were incubated with crude membranes for 1 h at room temperature. Thereafter 1 ml of buffer was added, the membranes collected by centrifugation in a microcentrifuge at 14,000 rpm for 5 min, the supernatant discarded, and the tip of the Eppendorf vial cut off and counted in a γ-counter (Minigamma, LKB, Sweden). To determine nonspecific binding unlabeled insulin was used at a concentration of 2 μl/ml (0.33 μM) and nonspecific binding was usually below 10% of the total binding.

Experiment [1] concerns collagen expression, rheumatoid synovial fibroblasts (Strain No. RSF64). Description: Inhibition of collagen expression by synovial fibroblasts. Type of experiment: cell-based, human. The conditions noted are these: 100 ng/ml (each); TGF-β-treated fibroblasts. The procedure: The method for detecting and measuring collagen formation in the presence of relaxin described in Unemori and Amento, 1990, J. Biol. Chem. 265:10681-685 has been modified as follows to determine the ability of RLF, in vitro, to modulate the expression of collagen. Materials and Methods. Rheumatoid synovial fibroblasts (Strain No. […] The cells were simultaneously biosynthetically labelled with ^3H=[…] μCi/ml) in the presence of ascorbate and BAPN. After 24 hours, the conditioned media were collected and electrophoresed on 4-12% polyacrylamide gels (NOVEX) under reducing conditions. Gels were enhanced, dried, and exposed to X-ray films for 1-2 weeks. Collagen bands were identified on the X-ray films as bacterial collagenase-sensitive, proline-incorporating bands between 95-200 kDa. Band density was quantified by scanning densitometry and used as estimates of collagen expression.

Another experiment deals with T2, RLF receptor (brain) (Mus musculus, UniProt Q91ZZ5).
T2 construct: from tissue; host or cells: mouse brain, crude membranes
In words: Binding assay, mouse brain crude membranes, hRLF tracer. The procedure:
(§1) Relaxin-binding assays were performed as described in Yang, et al., 1992, Endocrinology 130:179-185 and Büllesbach, et al., 1994, Endocrine. 2:1115-1120, using crude membrane preparations of mouse tissue. Mouse brains of 2 mice were collected into 15 ml of chilled buffer (25 mM HEPES, 0.14 M NaCl, 5.7 mM KCI, 0.2 mM phenylmethylsulfonyl-fluoride, and 80 mg/ml soybean trypsin inhibitor, pH 7.5) supplemented with sucrose (0.25 M, final concentration). The tissue was homogenized on ice for 10 s with a Polytron homogenizer (Brinlmann, Westbury, N.Y.) at setting 5. The homogenate was centrifuged at 700 rpm for 10 min at 4° C. and the supernatants were recentrifuged at 10,000×g for 1 h. The pellet was resuspended in 15 ml of ice cold binding buffer, 25 mM HEPES, 0.14 M NaCl, 5.7 mM KCI, 0.2 mM phenylmethylsulfonylfluoride, and 80 mg/ml soybean trypsin inhibitor, pH 7.5, supplemented with 1% bovine serum albumin, and centrifuged for 1 h at 10,000×g. […] The supernatant was discarded, the tip of the vial cut and counted in a γ-counter. Nonspecific binding was determined in the presence of 2 μl/ml of unlabeled competitor (0.33 μM). […]
(§2) Tissue specificity was determined using crude membrane preparations of leg muscles, kidneys, liver. brain, and uterus (of estrogen primed mice). […] Binding was based on protein concentration determined by Lowry. […]

A further experiment concerns the target T3, RLF receptor (uterus) (Mus musculus, UniProt Q91ZZ5).
T3 construct: brain, and uterus (of estrogen primed mice); from tissue; host or cells: uterus of estrogen-primed mice, crude membranes
In words: Binding assay, mouse uterus crude membranes, hRLF tracer. The procedure:
as §1, §2

The test system of experiment [2] is symphysis pubis of ovariectomized estrogen-primed female mice. In words: Mouse symphysis pubis (interpubic ligament) assay. It is filed as in vivo. The procedure: Mouse interpubic ligament assays were performed essentially as described by Steinetz, et al., 1960, Endocrinology 67:102-115. Ovariectomized virgin female mice were printed with 5 μg estrogen cypionate in 100 μl sesame oil. Five days later the mice were injected subcutaneously with human relaxin, RLF, or mixtures of human relaxin and RLF in 100 μl of 0.1% benzopurpurin 4B. Specifically, groups of five animals received either human relaxin at a suboptimal dose or a mixture of 0.2 μg, 0.4 μg and 0.8 μg human relaxin and 5 μg of RLF as given in FIG. 8. For negative control 100 μl of 0.1% benzopurpurin 4B in water were injected. After 16 hours the mice were killed in an atmosphere of CO2, the symphysis pubis dissected free, and the distance between the interpubic bones measured with a dissecting microscope fitted with transilluminating fiber optics.

For experiment [3], the system named is mouse brain relaxin receptor. In words: Relaxin-binding assay, mouse brain crude membranes, porcine relaxin tracer. Here is the method: Relaxin-binding assays were performed as described in Yang, et al., 1992, Endocrinology 130:179-185 and Büllesbach, et al., 1994, Endocrine. 2:1115-1120, using crude membrane preparations of mouse tissue. Mouse brains of 2 mice were collected into 15 ml of chilled buffer (25 mM HEPES, 0.14 M NaCl, 5.7 mM KCI, 0.2 mM phenylmethylsulfonyl-fluoride, and 80 mg/ml soybean trypsin inhibitor, pH 7.5) supplemented with sucrose (0.25 M, final concentration). The tissue was homogenized on ice for 10 s with a Polytron homogenizer (Brinlmann, Westbury, N.Y.) at setting 5. The homogenate was centrifuged at 700 rpm for 10 min at 4° C. and the supernatants were recentrifuged at 10,000×g for 1 h. The pellet was resuspended in 15 ml of ice cold binding buffer, 25 mM HEPES, 0.14 M NaCl, 5.7 mM KCI, 0.2 mM phenylmethylsulfonylfluoride, and 80 mg/ml soybean trypsin inhibitor, pH 7.5, supplemented with 1% bovine serum albumin, and centrifuged for 1 h at 10,000×g. The crude membrane preparation was suspended in 1 ml of binding buffer and 40 μl was used per assay. The assay was performed using 40 μl of tracer (about 100,000 cpm of porcine relaxin tracer=150 pM) and 20 μl of relaxin at various concentrations. The assay was incubated for 1 h at room temperature, and the suspension diluted with 1 ml of wash buffer (25 mM HEPES, 0.14 M NaCl, 5.7 mM KCI, 1% bovine serum albumin, 0.01% NaN3) and centrifuged in Eppendorf centrifuge at 14,000 rpm for 10 min. The supernatant was discarded, the tip of the vial cut and counted in a γ-counter. Nonspecific binding was determined in the presence of 2 μl/ml of unlabeled competitor (0.33 μM). In a typical experiment the specific binding was between 25% and 40% of the total binding.

The test system of experiment [4] is fibronectin expression, rheumatoid synovial fibroblasts. Description: Inhibition of fibronectin expression by synovial fibroblasts. It is filed as cell-based, human. The following applies: 100 ng/ml; TGF-β-treated fibroblasts. An excerpt:
The method for detecting and measuring collagen formation in the presence of relaxin described in Unemori and Amento, 1990, J. Biol. Chem. 265:10681-685 has been modified as follows to determine the ability of RLF, in vitro, to modulate the expression of fibronectin.
Materials And Methods. Specifically, using the method described in section 6.7.1., the fibronectin band was identified by size (220 kDa), bacterial collagenase-resistance, and positive staining using commercially available polyclonal anti-fibronectin antibody (Promega). The fibronectin band was scanned densitometrically to estimate levels of expression.

T2 sequence (Q91ZZ5 whole entry): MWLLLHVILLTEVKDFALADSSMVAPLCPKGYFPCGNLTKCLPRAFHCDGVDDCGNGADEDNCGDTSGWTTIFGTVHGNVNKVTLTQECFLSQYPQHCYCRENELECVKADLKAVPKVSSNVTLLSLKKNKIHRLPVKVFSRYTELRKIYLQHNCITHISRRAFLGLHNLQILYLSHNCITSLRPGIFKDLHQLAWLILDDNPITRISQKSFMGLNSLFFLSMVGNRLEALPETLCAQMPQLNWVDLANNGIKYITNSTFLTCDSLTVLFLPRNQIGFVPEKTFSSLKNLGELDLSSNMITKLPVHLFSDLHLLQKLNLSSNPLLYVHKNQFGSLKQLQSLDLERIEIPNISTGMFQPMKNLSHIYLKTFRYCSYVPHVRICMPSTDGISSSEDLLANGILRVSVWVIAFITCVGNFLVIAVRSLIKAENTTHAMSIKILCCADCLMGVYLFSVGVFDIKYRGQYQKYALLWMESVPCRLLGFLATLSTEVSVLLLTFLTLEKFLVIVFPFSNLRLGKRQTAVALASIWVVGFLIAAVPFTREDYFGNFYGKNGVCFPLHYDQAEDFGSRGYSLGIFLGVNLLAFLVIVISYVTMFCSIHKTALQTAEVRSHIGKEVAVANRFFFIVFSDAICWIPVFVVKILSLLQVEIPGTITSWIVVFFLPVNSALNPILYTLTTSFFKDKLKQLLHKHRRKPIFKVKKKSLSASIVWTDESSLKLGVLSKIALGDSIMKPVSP
T3 sequence (Q91ZZ5 whole entry): as above

In the case of “RLF: synthesized human relaxin-like factor, two-chain peptide (A and B chain, SEQ ID NOS:3 and 4), three disulfide links (alpha AAATNPARYCCLSGCTQQDLLTLCPY; beta PTPEMREKLCGHHFVRALVRVCGGPRWSTEA; disulfide I:11-II:10; also: two further disulfide bonds, places not given here)”, the “binding to the insulin receptor” value in the experiment with insulin receptor was “does not bind with any significant degree”. The “decrease of TGF-β-stimulated collagen expression” value in experiment [1] turned out to be 17%. In addition, the “50% Binding” value with RLF receptor (brain) was 0.3 ng; in the experiment with RLF receptor (uterus), 0.3 ng; in experiment [3] (mouse brain, tracer pRLX), 200 ng. The “effect on the activity of human relaxin in the mouse bioassay” value in experiment [2] (0.2, 0.4, 0.8 μg human relaxin with 5 μg RLF) is “significantly increased the activity of human relaxin”. The “optimal RLF amount for relaxin enhancement” value in experiment [2] (in the presence of 0.5 μg of human relaxin) is 5 µg. Moreover, the “effect of RLF on the relaxin effect at maximal dose” value in experiment [2] (maximal dose of both) is given as “still augmented”. Also, the “symphyseal widening, RLF alone” value in experiment [2] (subcutaneous, 16 hours) is recorded as “no effect; also recorded: does not cause symphyseal widening”. Further, the “crossreactivity with the brain relaxin receptor” value in experiment [3] (mouse brain) is “moderate crossreactivity”. In addition, the “excess that displaces 50% of the relaxin tracer” value in experiment [3] (mouse brain relaxin receptor preparation) is recorded as “hundred-fold”. The “decrease of TGF-β-stimulated fibronectin expression” value in experiment [4] is on record as 17%.
